From patent US7951772B2, “Tumor-activated prodrug compounds and treatment” (La Region Wallonne, priority 1994, dated 2011)
≈ marks a conversion by molar mass, not a printed value. Like-named read-outs stand apart in the source and are kept apart here.

How the values were obtained:
[1] = tested on: conditioned medium from HepG2 hepatocarcinoma cells
[2] = tested on: MCF7/6 human mammary carcinoma cells
Experimental: (§7) After 72 hours, the cells are incubated for 48 hours in the absence of anthracycline, and the cytotoxicity is determined by measuring the cellular proteins by Bradford's technique. […] The experimental points are adjusted to a sigmoid curve which enables the point of inflection, corresponding to the dose at which half of the cells survive (IC50), to be calculated.
(§8) After 72 hours, the cells are incubated for 48 hours in the absence of the anthracycline, and the cytotoxicity is determined by measuring the cellular proteins by Bradford's technique. […] The experimental points are adjusted to a sigmoid curve which enables the point of inflection, corresponding to the dose at which half of the cells survive (IC50), to be calculated.

[3] = tested on: MCF7/6 human mammary carcinoma cells; remark: listed apart in the source
Experimental: (§9) After various times, the accumulation of the prodrugs and of their fluorescent metabolites were determined by HPLC after extraction of the products at basic pH according to a method developed in the laboratory. Accumulations, expressed in μg/mg of cellular proteins, were compared with those of DNR and of DOX as well as with those of L-Leu-DNR and L-Leu-DOX. The metabolites were identified by determining the retention times of reference products synthesized in the laboratory.
(§10) After various times, the accumulation of the prodrugs and of their fluorescent metabolites was determined by HPLC after extraction of the products at basic pH according to a method developed in the laboratory. Accumulations, expressed in μg/mg of cellular proteins, were compared with those of DOX and of L-Leu-DOX. The metabolites were identified by determining the retention times of reference products synthesized in the laboratory.

[4] = tested on: MCF7/6 human mammary carcinoma cells; assay: Cytotoxicity with respect to MCF7/6 tumor cells (72 h, Bradford protein); conditions: MCF7/6 cells; for IC50: 72 hours with compound then 48 hours without
Experimental: as §7, §8

MRC5 fibroblast cells [5] = tested on: MRC5 fibroblast cells
Experimental: as §7, §8

[6] = tested on: conditioned medium from MCF7/6 mammary carcinoma cells
MRC5 fibroblast cells [7] = assay: Cytotoxicity with respect to MRC5 normal cells (72 h, Bradford protein); conditions: MRC5 cells; for IC50: 72 hours with compound then 48 hours without
Experimental: as §7, §8

[8] = tested on: conditioned medium from HT29 colon carcinoma cells
[9] = tested on: MCF7/6 human mammary carcinoma cells; assay: Accumulation in MCF7/6 tumor cells (HPLC of cell extracts)
Experimental: as §9, §10

[10] = Degradation in human blood at 37 C
MRC5 fibroblast cells [11] = assay: Accumulation in MRC5 normal fibroblast cells (HPLC of cell extracts)
Experimental: At various times, the accumulation of the prodrugs and of their fluorescent metabolites was determined by HPLC after extraction of the products at basic pH according to a method developed in the laboratory. Accumulations, expressed in μg/mg of cellular proteins, were compared with those of DNR and of L-Leu-DNR. The metabolites were identified by determining the retention times of reference products synthesized in the laboratory.
as §10

female NMRI mice [12] = assay: In vivo acute toxicity, intravenous route; design: species or system mouse; conditions: i.v., total dose of 60 mg/kg as two injections of 30 mg/kg on two consecutive days
female NMRI mice [13] = assay: In vivo acute toxicity, intraperitoneal route, 5 consecutive days; design: species or system mouse; conditions: for mortality: i.p. 5 consecutive days
Experimental: (§1) In the in vivo study of the acute toxicity of a medicinal product, determination of the median lethal dose (lethal dose for 50% of the animals or LD50) occupies an important place. […] The LD50 is a simple test in which increasing amounts of the test product are administered intravenously (i.v.) in a single injection and intraperitoneally (i.p.) in 5 injections, one injection daily for 5 consecutive days. The mortality of the animals is monitored as a function of time. At the end of the observation period, usually 30 days, the value of the LD50 is obtained by linear regression of the percentage mortality (on a probit scale) as a function of the logarithm of the dose administered (O. K. Chan and A. W. Hayes, Principles and methods for acute toxicity and eye irritancy, in Principles and methods of toxicology, Second edition. Ed. by A. W. Hayes, Raven Press, New York, USA (1989), pp. 169-220; D. Deprez-De Campeneere and A. Trouet. DNA-Anthracycline Complexes. I. Toxicity in mice and chemotherapeutic activity against L1210 Leukaemia off Daunorubicin-DNA and Adriamycin-DNA, Eur. J. Cancer, 16 (1980), pp. 981-986; H. E. Skipper, L. H. Schmidt, A. Goldin and J. M. Venditti. A manual on quantitative drug evaluation in experimental tumor systems, Cancer Chemother. Rep. 17 (1.962), pp. 1-178).
(§2) The acute toxicity of these two drugs was studied via the i.v. and i.p. routes on a single strain of mouse. Female NMRI mice (nonconsanguineous SPF-Han, approximately 5 weeks old and of mean weight 14.6 grams, supplied by IFFA-CREDO Belgium) remained in quarantine for one week.
(§3) Injections were performed systematically in the morning (single injection into the caudal vein for the i.v. route and injections on 5 consecutive days into the peritoneum for the i.p. route), using 1.0 ml syringes and sterile 30 G (i.v.) and 27 G (i.p) needles. All handling of animals was performed with gloves, and maintenance of the animals was performed systematically every week.
(§4) DNR was injected i.v. at doses of 10, 15, 20, 25, 30 and 35 mg/kg and i.p. at doses of 2.0; 2.5; 3.0 and 3.5 mg/kg.
(§5) The concentrations of the solutions were verified by spectrophotometry.
(§6) From the day of injection (DO) onwards, the mice were monitored clinically, with a daily record of dead mice. The weight of the mice was measured almost every day. The observation period was extended beyond one month so that the signs of late toxicity could be spotted more readily. At the end of the study, the surviving mice were sacrificed, according to the standards pertaining to animal experiments (D. B. McGregor. Ethics in experiments on animals, in Experiments in toxicology, First edition. Ed. by D. Anderson and D. M. Conning. The Royal Society of Chemistry and The Universities Press. Belfast, Ireland (1988), pp. 512-522).

[14] = tested on: conditioned medium from anthracycline-resistant MCF7 cells (MCF7/ADR line); assay: Degradation in conditioned medium from MCF7/ADR mammary carcinoma cells; type: in vitro ADME, human; conditions: 37 C, 1 hour
female NMRI mice [15] = assay: In vivo acute toxicity, intravenous route; design: species or system mouse; weight increase of the 3 surviving mice: dose or concentration left out as unconfirmed; conditions: i.v.; for mice dying: groups of 5
Experimental: as §1, §2, §3, §4, §5, §6

[16] = tested on: conditioned medium from MCF7/6 mammary carcinoma cells; assay: Degradation in conditioned medium from MCF7/6 mammary carcinoma cells (HPLC); conditions: share of each species by HPLC
[17] = MCF7/6 cells, 6 hours of incubation, 10 μg eq. DNR/ml
[18] = MRC5 cells, 6 hours of incubation, 10 μg eq. DNR/ml

In the case of `COc1cccc2c1C(=O)c1c(O)c3c(c(O)c1C2=O)C[C@@](O)(C(C)=O)C[C@@H]3O[C@H]1C[C@H](NC(=O)[C@@H](N)CC(C)C)C(O)[C@H](C)O1` (stereo partly drawn) [L-Leu-DNR, N-L-leucyldaunorubicin], the “main metabolites found, % of the total fluorescence” value [1] is reported as 27%, the “times less cytotoxic than DNR” value [2] is reported as 14 times and the “DNR found intracellularly, % of the total intracellular fluorescence” value [3] is reported as 14%. The IC50 [4] was 1.30 ± 0.56 µg/mL (≈ 2.03 µM), the “times less cytotoxic than DNR” value (MRC5 fibroblast cells [5]) was 172 times and the “Hydrolysis, MCF-7/6 Conditioned Medium” value [6] was “−”. The “Starting material or Metabolite, After 1 hour” value [6] was 83%, the “Starting material or Metabolite, After 2 hours” value [6] was 90% and the “Starting material or Metabolite, Time 0” value [6] was 0%. The IC50 (MRC5 fibroblast cells [7]) was 1.78 ± 0.23 µg/mL (≈ 2.78 µM) and the “main metabolites found, % of the total fluorescence” value [8] was 82%.

For `COc1cccc2c1C(=O)c1c(O)c3c(c(O)c1C2=O)C[C@@](O)(C(C)=O)C[C@@H]3O[C@H]1C[C@H](NC(=O)[C@H](CC(C)C)NC(=O)[C@H](C)NC(=O)[C@H](CC(C)C)NC(=O)CCN)[C@H](O)[C@H](C)O1` [β-Ala-Leu-Ala-Leu-DNR, β-alanyl-L-leucyl-L-alanyl-L-leucyldaunorubicin], the “level of accumulation (unchanged form)” value ([9]; MCF7/6 cells, 10 μg eq. DNR/ml, 24 hours of incubation) was ~1 μg/mg of cellular proteins, the “Intracellular concentration, DNR formed” value [9, 17] was 0.9 μg/mg cellular proteins and the “Intracellular concentration, Leu-DNR formed” value [9, 17] was 4.5 μg/mg cellular proteins. For the same molecule, the “Intracellular concentration, Starting material” value [9, 17] was 0.3 μg/mg cellular proteins, the “DNR found intracellularly, % of the total intracellular fluorescence” value ([9]; MCF7/6 cells, after 24 hours of incubation) was “approximately 40%” and the “intracellular levels of DNR in MCF7/6 tumor line, times as high as in MRC5 fibroblasts” value ([9]; after 24 hours of incubation) was 12 times. The “stability when incubated in human blood” value [10] was “stable”, the level of accumulation (MRC5 fibroblast cells [11]; MRC5 cells, 10 μg eq. DNR/ml, 24 hours of incubation) was ~3.3 μg/mg of cellular proteins and the “Intracellular concentration, DNR formed” value (MRC5 fibroblast cells [11]; [18]) was 0.08 μg/mg cellular proteins. The “Intracellular concentration, Leu-DNR formed” value (MRC5 fibroblast cells [11]; [18]) was 3.1 μg/mg cellular proteins, the “Intracellular concentration, Starting material” value (MRC5 fibroblast cells [11]; [18]) was 0.03 μg/mg cellular proteins and the “cell entry, times less than DNR” value (MRC5 fibroblast cells [11]; after 6 hours) was 300 times. For the same molecule, the mortality (female NMRI mice [12]) was “no mortality”, the mortality (female NMRI mice [13]; total dose of 60 mg/kg, groups of 5) was 2 mice die on day 22 and a third on day 35 and the mortality (female NMRI mice [13]; total doses of between 10 and 45 mg/kg) was “no mortality”. The “times less toxic than DNR (acute toxicity)” value (female NMRI mice [13]; i.p. administration on 5 consecutive days) was “at least 30 times”, the “LD50 (dose close to)” value (female NMRI mice [13]; i.p. on 5 consecutive days, total dose) was about 60 mg/kg and the “increase in mean weight” value (female NMRI mice [13]; i.p., 45 mg/kg, over the next 30 days after 7 stable days) was 20%. For the same molecule, the “day on which surviving mice recover their initial weight” value (female NMRI mice [13]; i.p., total dose of 60 mg/kg) was 36 days, the “decrease of mean weight” value (female NMRI mice [13]; i.p., total dose of 60 mg/kg, in 15 days) was about 15% and the weight gain (female NMRI mice [13]; i.p., total doses of between 10 and 45 mg/kg, in 40 days) was “+40%”. The “times less cytotoxic than DNR” value ([4]; 72 hours) was 244 times, the IC50 [4] was 22.00 ± 7.31 µg/mL (≈ 24.6 µM) and the metabolite found [14] was “the only metabolite now to be found is L-Leu-DNR”. The “time of death after injection” value (female NMRI mice [15]) was at most 5 min, the “increase of mean weight” value (female NMRI mice [15]; 30 mg/kg, in 40 days) was about 40% and the “time of death after injection” value (female NMRI mice [15]; 120 mg/kg) was at most 7 min. For the same molecule, the mice dying (female NMRI mice [15]; 120 mg/kg) was 5, the mortality (female NMRI mice [15]; dose of 30 mg/kg) was “no mortality” and the mice dying (female NMRI mice [15]) was 2. For the same molecule, the “weight increase of the 3 surviving mice” value (female NMRI mice [15]; in 40 days) was about 30%, the “times less cytotoxic than DNR” value (MRC5 fibroblast cells [7]; 72 hours) was 2230 times and the IC50 (MRC5 fibroblast cells [7]) was 23.14 ± 4.81 µg/mL (≈ 25.8 µM). The “Starting material or Metabolite, Time 0” value ([16]; β-Ala-Leu-Ala-Leu-DNR incubated at 37 C in MCF7/6 conditioned medium concentrated 20 of 40 times, time 0) was 100%, the “Starting material or Metabolite, After 1 hour” value ([16]; β-Ala-Leu-Ala-Leu-DNR incubated at 37 C in MCF7/6 conditioned medium, 1 hour) was 10% and the “Starting material or Metabolite, After 2 hours” value ([16]; β-Ala-Leu-Ala-Leu-DNR incubated at 37 C in MCF7/6 conditioned medium, 2 hours) was 2.6%.
